Positions of bridges follow the written chain, without caps; N, C: chain ends. No end group written: not given here.
How the values were obtained:
Assay type in all cases: cell-based, human
[1] = test system: hMSC cells; assay: Alkaline phosphatase (AP) in cells contacted with peptide-displaying clones (tertiary screen); conditions: for induction of osteoblastic marker enzyme alkaline phosphatase: additional screening of clones
Description: A tertiary screen of the identified peptides was performed. The effect of each peptide on target cells was determined by measuring amounts of osteoblastic marker alkaline phosphatase (AP). Clonally purified individual isolates, or sibling pools of multiple isolates, were tested using the secondary and tertiary screens.
Individual preparations of each bacterial peptide-bearing clone to be tested were induced to express peptides, and were heat-devitalized in boiled water, to kill the peptide-displaying bacteria. Fifty microliters of heat-devitalized bacterial suspension was poured into each well of a 96-well plate containing agar, and the plate was centrifuged at 2000 rpm to embed bacteria in the surface of the agar.
Clones were further tested to quantify amount of stimulation of alkaline phosphatase (AP) activity in contacted cells. […] DNA from this clone that stimulated AP expression was isolated and was sequenced, and the DNA sequence was used to obtain amino acid sequence VFLRGNNSGGRS (SEQ ID NO: 2). This amino acid sequence appears not to have been previously reported.
Osteoinductive peptides with activity that stimulated osteoblasts include: VFLRGNNSGGRS (SEQ ID NO:2), GKIHRHRGQAVE (SEQ ID NO: 3), HIRQMPVRAGLS (SEQ ID NO: 4), RQGVGSNGXIQK (SEQ ID NO: 5), ESHCLLGISCVL (SEQ ID NO: 6), QQLQQNVILET (SEQ ID NO: 7), RSKLVEFRTTG (SEQ ID NO: 8), RNWRMSRRGGM (SEQ ID NO: 9), CVRGRGRMAGSV (SEQ ID NO: 10), ITRGELATVRRS (SEQ ID NO: 11), LRLGVGMGRTC (SEQ ID NO: 12), ERFAGNRNQLQ (SEQ ID NO: 13), GGLGSVGWYWA (SEQ ID NO: 14), GCGKERGRRALK (SEQ ID NO: 15), GQERLWAFRWVP (SEQ ID NO: 16), RGVLRVGTGRSE (SEQ ID NO: 17), ITRGELATVRRS (SEQ ID NO: 18), RPALRLGLIGPS (SEQ ID NO: 19), TRTSVDAPIRX (SEQ ID NO: 20), SKALRGVGSVAS (SEQ ID NO: 21), and RRGQDRGHEPK (SEQ ID NO: 22).

[2] = test system: MG63 cells; assay: Cellular ATP in MG63 cells on streptavidin-coated wells treated with biotinylated peptide; conditions: MG63 1,000 cells/well, 120 hours after seeding, 50-3200 pmole/well, FIG. 4, versus biotin only
Description: (§1) Cell growth and osteogenic inducing potential of each of the preparations of the biotinylated linear and the cyclic peptides was determined. The osteogenic potential of each peptide was analyzed by quantifying cellular ATP and alkaline phosphatase (AP) activity of osteoblast cells.
(§2) Peptides were added to the wells in titrated amounts (50 pmole/well, 100 pmole/well, 200 pmole/well, 400 pmole/well, 800 pmole/well, 1600 pmole/well, or 3200 pmole/well) and were immobilized on streptavidin-coated plastic well plates (384 wells per plate). The biotin-binding capacity of the plates was 50 pmole/well. Each well was washed to remove unbound biotinylated peptides. […] MG63 cells (1,000 cells/well) were inoculated into each well.
(§3) ATP (RFU/well) was measured at each of 24 hours and 120 hours after cells were seeded, and alkaline phosphatase (AP, RFU standardized by cell number) activity was measured 120 hours after cells were seeded.

[3] = test system: MG63 cells; assay: Alkaline phosphatase activity of MG63 cells on streptavidin-coated wells treated with biotinylated peptide; conditions: MG63 1,000 cells/well, 120 hours after seeding, 50-3200 pmole/well, FIG. 5, versus biotin only
Description: as §1, §2, §3

Row | Substance | induction of osteoblastic marker enzyme alkaline phosphatase [1] | further results
1 | ERFAGNRNQLQ (The protein was designed and synthesized) [SEQ ID NO: 13] | induced osteoblastic marker enzyme alkaline phosphatase | –
2 | CVRGRGRMAGSV (The protein was designed and synthesized) [SEQ ID NO: 10] | induced osteoblastic marker enzyme alkaline phosphatase | –
3 | GEN/cyclic: biotinylated cyclic ESHCLLGISCVL (SEQ ID NO: 6), three mini-PEG repeats, synthesized by GEN (disulfide 4-10 (inferred); also: biotin, three mini-PEG repeats, attachment end not given here) | – | cellular ATP amounts / cell growth, 120 hours [2]: stimulated ATP production and cellular growth; alkaline phosphatase (AP) activity, 120 hours [3]: induced greater alkaline phosphatase activity than the controls
4 | GGLGSVGWYWA (The protein was designed and synthesized) [SEQ ID NO: 14] | induced osteoblastic marker enzyme alkaline phosphatase | –
5 | RSKLVEFRTTG (The protein was designed and synthesized) [SEQ ID NO: 8] | induced osteoblastic marker enzyme alkaline phosphatase | –
6 | RGVLRVGTGRSE (The protein was designed and synthesized) [SEQ ID NO: 17] | induced osteoblastic marker enzyme alkaline phosphatase | –
7 | RNWRMSRRGGM (The protein was designed and synthesized) [SEQ ID NO: 9] | induced osteoblastic marker enzyme alkaline phosphatase | –
8 | SKALRGVGSVAS (The protein was designed and synthesized) [SEQ ID NO: 21] | induced osteoblastic marker enzyme alkaline phosphatase | –
9 | ITRGELATVRRS (The protein was designed and synthesized) [SEQ ID NO: 11] | induced osteoblastic marker enzyme alkaline phosphatase | –
10 | GKIHRHRGQAVE (The protein was designed and synthesized) [SEQ ID NO: 3] | induced osteoblastic marker enzyme alkaline phosphatase | –
11 | TRTSVDAPIRX [SEQ ID NO: 20] | induced osteoblastic marker enzyme alkaline phosphatase | –
12 | GCGKERGRRALK (The protein was designed and synthesized) [SEQ ID NO: 15] | induced osteoblastic marker enzyme alkaline phosphatase | –
13 | QQLQQNVILET (The protein was designed and synthesized) [SEQ ID NO: 7] | induced osteoblastic marker enzyme alkaline phosphatase | –
14 | RQGVGSNGXIQK [SEQ ID NO: 5] | induced osteoblastic marker enzyme alkaline phosphatase | –
15 | ESHCLLGISCVL (The protein was designed and synthesized) [SEQ ID NO: 6, osteopontin-like peptide] | induced osteoblastic marker enzyme alkaline phosphatase | cellular ATP amounts / cell growth, 120 hours [2]: induced cell growth; alkaline phosphatase (AP) activity, 120 hours [3]: production of osteogenic marker AP
16 | LRLGVGMGRTC (The protein was designed and synthesized) [SEQ ID NO: 12] | induced osteoblastic marker enzyme alkaline phosphatase | –
17 | NEP/linear: biotinylated linear ESHCLLGISCVL (SEQ ID NO: 6), 15 atom-PEG, synthesized by NEP (cysteine pairing not given here; also: biotin, 15 atom-PEG, attachment end not given here) | – | cellular ATP amounts / cell growth, 120 hours [2]: stimulated ATP production and cellular growth; alkaline phosphatase (AP) activity, 120 hours [3]: induced greater alkaline phosphatase activity than the controls
18 | RPALRLGLIGPS (The protein was designed and synthesized) [SEQ ID NO: 19] | induced osteoblastic marker enzyme alkaline phosphatase | –
19 | VFLRGNNSGGRS (The protein was designed and synthesized) [SEQ ID NO: 2] | induced osteoblastic marker enzyme alkaline phosphatase | AP expression compared with control cells contacted with empty vector ([1]; clone-contacted cells): an order of magnitude more AP expression
20 | GEN/linear: biotinylated linear ESHCLLGISCVL (SEQ ID NO: 6), three mini-PEG repeats, synthesized by GEN (cysteine pairing not given here; also: biotin, three mini-PEG repeats, attachment end not given here) | – | cellular ATP amounts / cell growth, 120 hours [2]: stimulated ATP production and cellular growth; cellular ATP amounts / cell growth, 120 hours ([2]; listed as linear peptides synthesized by GEN): greater ATP amounts than those in wells treated with any of the other peptides; alkaline phosphatase (AP) activity, 120 hours [3]: induced greater alkaline phosphatase activity than the controls
21 | GQERLWAFRWVP (The protein was designed and synthesized) [SEQ ID NO: 16] | induced osteoblastic marker enzyme alkaline phosphatase | –
22 | HIRQMPVRAGLS (The protein was designed and synthesized) [SEQ ID NO: 4] | induced osteoblastic marker enzyme alkaline phosphatase | –
23 | RRGQDRGHEPK (The protein was designed and synthesized) [SEQ ID NO: 22] | induced osteoblastic marker enzyme alkaline phosphatase | –
24 | NEP/cyclic: biotinylated cyclic ESHCLLGISCVL (SEQ ID NO: 6), 15 atom-PEG, synthesized by NEP (disulfide 4-10 (inferred); also: biotin, 15 atom-PEG, attachment end not given here) | – | cellular ATP amounts / cell growth, 120 hours [2]: stimulated ATP production and cellular growth; alkaline phosphatase (AP) activity, 120 hours [3]: induced greater alkaline phosphatase activity than the controls

Source: patent US8815807B2, “Peptides and peptide compositions having osteoinductive activity” (President and Fellows of Harvard College, priority 2008, dated 2014)
